Values joined by “and” are separate entries in the source; they are usually repeats but may differ in a detail not shown here. Equal values may be shown once. Read-outs that look alike come from different tables or passages of the source. Ends that are not written are not given here.
Experiments:
[1] = system: Corynebacterium simulans DSM 44415; assay: CFU assay of antimicrobial activity; format: cell-based; settings: 10 mM NaP, pH 6.0, 0.25% glucose
Method: All purified peptides and recombinant proteins were applied using a colony forming unit (CFU) assay in different media. Bacteria were grown to early log-phase in BHI, washed either with 10 mM Na-P, pH 7.4/1% TSB or pH 5.5/1% TSB, or pH 5.5 without TSB or BHI, and adjusted to a concentration of 10^4–10^5 colony forming units (CFU)/ml. For cell number control, 100 µl aliquots were diluted 1:10, 1:100 and 1:1000 and plated in duplicates on BHI agar plates. […]
(§1) Then bacteria were incubated for 2 h at ambient temperature, if not otherwise stated. 10 µl of 0.01% (v/v) acetic acid, added to 100 µl aliquots of the bacteria in the respective medium, served as negative control. From each test, 1:10 and 1:100 dilutions were generated and plated as duplicates of 100 µl aliquots on BHI agar plates. After 16 h incubation at 37 °C, CFU were counted using a colony counter (Bio Kobe, Japan) and expressed as mean of the duplicate estimation to achieve a complete dose-response curve. All experiments were performed at serial dilutions in a concentration range of 100 µg/mL −25 ng/mL for recombinant HRNR fragments and 300 or 150 µg/mL–19 ng/mL for synthetic peptides.

P. aeruginosa ATCC 10145 = settings: CFU assay, 10 mM NaP
E. coli ATCC 11775 = assay: CFU assay of antimicrobial activity; format: cell-based, Escherichia coli; settings: 10 mM NaP, pH 5.5, 1% TSB
Method: (§2) All purified peptides and recombinant proteins were applied using a colony forming unit (CFU) assay in different media. Bacteria were grown to early log-phase in BHI, washed either with 10 mM Na-P, pH 7.4/1% TSB or pH 5.5/1% TSB, or pH 5.5 without TSB or BHI, and adjusted to a concentration of 10^4–10^5 colony forming units (CFU)/ml. For cell number control, 100 µl aliquots were diluted 1:10, 1:100 and 1:1000 and plated in duplicates on BHI agar plates. To 100 µl aliquots of the bacteria, suspended in the respective medium (10 mM Na-P buffer pH 7,0–7,4/ 1% (w/v) TSB; 10 mM Na-P buffer pH 5,5/ 1% (w/v) TSB; 10 mM Na-P buffer pH 7,0–7,4/ 1% (w/v) TSB pH 7,0–7,4/ 0,25% (w/v) glucose; 10 mM Na-P buffer pH 5,5/ 0,25% (w/v) glucose, respectively), 10 µl of a solution of the peptide or protein (two-fold dilutions, from 300 µg/ml or 150 µg/ml down to 19 ng/ml), dissolved in 0.01% (v/v) acetic acid, were added.
as §1

C. albicans ATCC 24433 = assay: CFU assay of antimicrobial activity; format: cell-based, Candida albicans; settings: 10 mM NaP
Method: Bacteria were cultivated in either brain heart infusion medium (BHI), lysogeny broth (LB) or tryptic soy broth (TSB)[88]. If not otherwise stated, bacteria were incubated under shaking conditions (37 °C at 170 rpm) or as indicated on the ATCC- or DSM-data sheets. Candida albicans was cultured for 3 days on Yeast Extract-Peptone Dextrose (YPD) agar at 30 °C and yeast suspensions at appropriate density were treated with CIDAMPs as indicated.
as §2, §1

S. aureus ATCC 6538 = settings: CFU assay, 10 mM NaP, pH 5.5, 1% TSB
[2] = system: Burkholderia cepacia ATCC 25416; settings: CFU assay, 10 mM NaP, pH 5.5, 0.25% glucose

## QSGTHHAENSSGGQAASSHEQAR [FLG2301-2323]
[1]
  LD90: > 150 µg/mL
  LD100: > 150 µg/mL
P. aeruginosa ATCC 10145; pH 5.5, 0.25% glucose
  LD90: > 300 µg/mL
  LD100: 300 µg/mL

## QSGTRHAETSSGGQAASSHEQAR [FLG3273-3295]
[1]
  LD90: > 150 µg/mL
  LD100: > 150 µg/mL
P. aeruginosa ATCC 10145; pH 5.5, 0.25% glucose
  LD90: > 300 µg/mL
  LD100: 300 µg/mL

## GRHGSGLGHSSSHGQHGSGSGRSSSRGPY [HR 1-17]
E. coli ATCC 11775
  LD90: >300 µg/mL
  LD100: >300 µg/mL
C. albicans ATCC 24433; pH 5.5, 0.25% glucose
  LD90: 18.8 µg/mL
  LD100: 9.38 µg/mL
C. albicans ATCC 24433; pH 5.5, 1% TSB
  LD90: 18.8 µg/mL
  LD100: 150 µg/mL
P. aeruginosa ATCC 10145; pH 5.5, 0.25% glucose
  LD90: 0.038 µg/mL and 0.075 µg/mL
  LD100: 0.15 µg/mL and 0.3 µg/mL
P. aeruginosa ATCC 10145; pH 5.5, 1% TSB
  LD90: 0.59 µg/mL
  LD100: 18.75 µg/mL
S. aureus ATCC 6538
  LD90: >300 µg/mL
  LD100: >300 µg/mL
[2]
  LD90: >300 µg/mL
  LD100: >300 µg/mL

## QSGTRHTQTSSGGQAASSHEQAR [FLG2625-2647]
[1]
  LD90: > 150 µg/mL
  LD100: > 150 µg/mL
P. aeruginosa ATCC 10145; pH 5.5, 0.25% glucose
  LD90: > 300 µg/mL
  LD100: > 300 µg/mL

B1: rHRNR2727–2850: recombinant HRNR fragment (protein, UniProt Q86YZ3 2727-2850, looked up, fragment)
chain: SGQSSTFDQEGSSTGQSSSYGHRGSGSSQSSGYGRHGAGSGQSLSHGRHGSGSGQSSSYGQHGSGSGQSSGYSQHGSGSGQDGYSYCKGGSNHDGGSSGSYFLSFPSSTSPYEYVQEQRCYFYQ
E. coli ATCC 11775
  LD90: 0.28 µg/mL
  LD100: >100 µg/mL
C. albicans ATCC 24433; pH 5.5, 1% TSB
  LD90: 8.6 µg/mL
  LD100: 137 µg/mL
P. aeruginosa ATCC 10145; pH 5.5, 1% TSB
  LD90: 2.1 µg/mL
  LD100: 17.1 µg/mL
